Assay results from patent US20160287602A1, “METHODS FOR PROMOTING MOTOR NEURON SURVIVAL” (PRESIDENT AND FELLOWS OF HARVARD COLLEGE, priority 2013, published 2016).
“Also recorded” adds a separate entry of the source.

Columns and labels:
[1] = test system: FACS purified Hb9::GFP MNs; assay: MN survival after trophic factor withdrawal, FACS purified MN culture; format: cell-based, mouse; details: FACS purified MN cultures, trophic factors withdrawn, FIG. 1C
Description: ESC-derived MN culture achieves ˜30%-50% MN differentiation efficiency and is therefore highly heterogeneous. To examine whether AKIs specifically act in a cell-autonomous or non-cell-autonomous manner, we established a highly enriched MN culture through FACS purification based on Hb9::GFP reporter expression. […] Next, we asked whether AKIs exert their survival promoting effect only cell-autonomously or whether they also function non-cell-autonomously to rescue MN death. To address this question we produced astrocyte conditioned medium (ACM) by incubating primary murine astrocytes with AKIs (VX-680 and ZM447439). The ACM was then dialyzed using a dialyzer with pore size appropriate for eliminating residual AKIs.

[2] = test system: SOD1^G93A (SOD1^G93A/Hb9::GFP) mouse ESC derived MNs; assay: MN survival after trophic factor withdrawal, mixed culture; format: cell-based; details: trophic factor withdrawal, 3 days; SOD1^G93A/Hb9::GFP MNs
Description: (§1) In the present study, we have screened highly specific small molecule kinase inhibitors to identify those which could promote MN survival. For the screen, we generated MNs from wild-type (Hb9::GFP) and SOD1^G93A (SOD1^G93A/Hb9::GFP) mouse ESCs using published protocols (Di Giorgio et al., 2007). We withdrew trophic factors as a standard method to induce MN death. Cell plating density as well as timing for initiation and duration of trophic factor withdrawal were used exactly as published to achieve ˜80% MN death in 3 days (FIG. 1A) (Yang et al., 2013). […] We continued to work with this compound class as it reproducibly promoted survival of both MNs types and the effect was robust. We further reasoned that since this compound class promoted survival of both MN types, the probability of its working in other contexts such as on human MNs and in the ALS mouse model was maximum.
High expression of Aurora kinases is associated with various types of cancer (Sen et al., 1997; Reichardt et al., 2003; Tchatchou et al., 2007) and there are many AKIs including VX-680 and ZM447439 that are in clinical trials for anti-cancer drug development.
(§2) Trophic factors were removed and ZM447439 was added to the cultures as previously and MN survival was analyzed on day 7, 14 & 21.

[3] = test system: wild-type (Hb9::GFP) mouse ESC derived MNs; assay: as above; format: cell-based; details: for survival of MNs (number of surviving MNs): trophic factor withdrawal, 3 days, wild-type Hb9::GFP MNs
Description: as §1, with “maximum. […]” for “maximum.”
as §2

[4] = test system: human iPSC derived MNs (healthy control, SOD1, TDP-43, C90RF72); details: human MNs derived from wild-type and ALS-patient-iPSCs (Yang et al., 2013); cited from earlier work
[5] = test system: wild-type (Hb9::GFP) mouse ESC derived MNs; details: previous small molecule survival screen (Yang et al., 2013); cited from earlier work
[6] = test system: SOD1^G93A (SOD1^G93A/Hb9::GFP) mouse ESC derived MNs; details: previous small molecule survival screen (Yang et al., 2013); cited from earlier work
[7] = ALS (Miller et al., 2007); cited from earlier work
[8] = test system: MNs; assay: Lentivirus knockdown of Prkarlb, MN survival; format: cell-based, mouse
Description: (§3) Next we sought to investigate the mechanism by which AKIs promote MN survival. To evaluate this comprehensively we performed microarray analysis to compare gene expression between MNs cultured with: 1) Trophic factors (+TF), 2) No trophic factors (−TF), 3) VX-680 in the absence of TFs, and 4) ZM447439 in the absence of TFs. […] Gene expression was compared between +TF and −TF, VX-680 and −TF, and ZM447439 and −TF. With a cut off of more than 3 fold difference, there were 85 genes overlapping in all three comparison in Hb9::GFP MNs and 57 in SOD1^G93A/Hb9::GFP MNs. We found 39 overlapping genes when we compared both types of MNs (FIG. 5B). […] We analyzed the shortlist of 39 genes by using DAVID functional annotation bioinformatics microarray analysis software to find the potential pathways involved in MN survival. […] PKA is known to phosphorylate BAD protein, leading to increased cell survival (Jose M. LIZCANO et al., 2000; Julian Downward et al., Nature cell biology 1999; Komaki S et al., Neurosci Lett 2012). […] We further investigated this pathway by lentivirus knockdown of Prkarlb.

[9] = test system: Hb9::GFP and SOD1^G93A/Hb9::GFP MNs; assay: Microarray analysis of gene expression in MNs; format: cell-based, mouse; details: compound in the absence of TFs versus -TF
Description: as §3

[10] = test system: Prkarlb; assay: Prkar1b immunostaining in surviving MNs; format: cell-based, mouse; details: absence of TFs
[11] = test system: Hb9::GFP MNs; assay: Number of synapses per MN (synapsin/PSD-95 co-localization, automated imager); format: cell-based, mouse
Description: (§4) To examine whether MNs kept alive by AKIs maintain morphological integrity we carried out a series of analyses on surviving MNs in the absence of trophic factors. […] We also used an automated imager to analyze the number of synapses per MN by counting co-localized regions positive for the presynaptic marker synapsin and the postsynaptic marker PSD-95.

[12] = test system: SOD1^G93A/Hb9::GFP MNs; assay: as above; format: cell-based, mouse
Description: as §4

[13] = test system: phosphorylated BAD (pBAD); assay: Phosphorylated BAD immunostaining in surviving MNs; format: cell-based, mouse; details: absence of TFs
[14] = test system: synaptophysin in SOD1^G93A/Hb9::GFP MN cultures; assay: Synaptophysin immunoblotting; format: cell-based, mouse
[15] = test system: HuES-3/Hb9::GFP human ESC derived MNs; assay: Human ESC derived MN survival after trophic factor withdrawal; format: cell-based; details: trophic factors withdrawn; AraC pre-treated cultures
Description: We generated MNs from a human ESC line expressing an HB9::GFP transgene [HuES-3/Hb9::GFP (Di Giorgio et al., 2008)]. Human ESC derived MN cultures were pre-treated with AraC to eliminate progenitor cells. We induced MN death by again withdrawing trophic factors. […] We also investigated the toxic effect of SOD1^G93A astrocytes on human ESC derived MN survival. We found significant death of human MNs cultured on mutant astrocytes.

[16] = test system: synaptophysin in Hb9::GFP MN cultures; assay: Synaptophysin immunoblotting; format: cell-based, mouse
[17] = test system: human iPSC derived MNs (healthy control, SOD1, TDP-43, C90RF72); assay: Human iPSC derived MN survival; format: cell-based; details: all human iPSC derived MN cultures; AraC treated
Description: We produced MNs from human iPSCs lines including a healthy control, two ALS patients expressing confirmed mutations in SOD1 (Boulting et al., 2011), two with mutations in TDP-43 and one in C90RF72. We treated these cultures with AraC to minimize the number of proliferating progenitors. […] We also examined the effect of SOD 1^G93A astrocytes co-culture on iPSC derived MNs. We found no toxic effect on survival in any of the patient iPSC derived MNs, but we did observe decreased MN survival in the control iPSC derived MNs. […] We also looked at the effect of AKIs on morphology and synapse formation. […] In addition, by immunoblot we observed that ZM447439 enhanced synaptic protein, synaptophysin, expression in both the presence and absence of trophic factors.

[18] = ALS drug candidates; cited from earlier work

With COc1cc2ncnc(Nc3ccc(NC(=O)c4ccccc4)cc3)c2cc1OC.Cl [4-4-Ben, N-[4-[(6,7-Dimethoxy-4-quinazolinyl)amino]phenyl] benzamide Hydrochloride] the MN survival [1] was “rescued MN survival in a dose dependent fashion”, the “survival of MNs (number of surviving MNs)” value [2] was “consistently increased the survival of MNs” and the “survival of MNs (number of surviving MNs)” value [3] was “consistently increased the survival of MNs”.
In the case of O=C1Cc2c([nH]c3ccc(Br)cc23)-c2ccccc2N1 [Kenpaullone], the “survival of human MNs” value [4] is given as “able to improve the survival”, the “healthy survival of MNs” value [5] is given as “impressive ability to prolong the healthy survival” and the “healthy survival of MNs” value [6] is given as “impressive ability to prolong the healthy survival”.
In the case of Nc1nc2ccc(OC(F)(F)F)cc2s1 [Riluzole], the functional improvement [7] is given as “very little functional improvement; also recorded: little functional improvement”.
In the case of Cc1cc(Nc2cc(N3CCN(C)CC3)nc(Sc3ccc(NC(=O)C4CC4)cc3)n2)[nH]n1 [VX-680, Tozasertib], the MN survival [1] is reported as “rescued MN survival in a dose dependent fashion”, the “survival of MNs (number of surviving MNs)” value [2] is reported as “consistently increased the survival of MNs; also recorded: most potent and robust at increasing survival” and the “MN survival on knocking down Prkarlb in the presence of the compound” value [8] is reported as “effectively decreased MN survival”. For the same compound, the “expression of genes related to synapse formation (Syt1, Snap25 and Sv2c, Map2 and Dcx)” value [9] was “upregulated”, the “levels of Prkarlb” value [10] was “increased levels” and the “number of synapses per MN” value ([11]; absence of trophic factors, Hb9::GFP MNs) was “preserved the number of synapses”. For the same compound, the “number of synapses per MN” value ([11]; neurotrophin containing medium) was “increased the number of synapses per MN”, the “number of synapses per MN” value ([12]; absence of trophic factors, SOD1^G93A/Hb9::GFP MNs) was “preserved the number of synapses” and the “number of synapses per MN” value ([12]; neurotrophin containing medium) was “increased the number of synapses per MN”. For the same compound, the “levels of phosphorylated BAD (pBAD)” value [13] was “increased levels”, the “expression of synaptic protein synaptophysin” value [14] was “increased expression” and the “human MN survival” value [15] was “rescued human MN death”. The “expression of synaptic protein synaptophysin” value [16] was “increased expression”, the “survival effect in dose dependent assay, comparison among AKIs” value ([3]; mixed MN culture, FIG. 1B) was “most effective and potent in promoting MN survival” and the “survival of MNs (number of surviving MNs)” value [3] was “consistently increased the survival of MNs; also recorded: most potent and robust at increasing survival”. The MN survival [17] was “substantially increase MN survival”.
In the case of CCCN[C@@H]1CCc2nc(N)sc2C1 [dexpramipexole], the “outcome of phase III clinical trials” value [18] is listed as “failed”.
For CC(C)CCC[C@@H](C)[C@H]1CC[C@H]2[C@@H]3CCC4=CC(=NO)CC[C@]4(C)[C@H]3CC[C@]12C [olesoxime], the “outcome of phase III clinical trials” value [18] is listed as “failed”.
